Source: US6890727B2, “Diagnostic assay for Alzheimer's disease: assessment of Aβ abnormalities” (The General Hospital Corporation, priority 1994, dated 2005)
Read-outs that look alike come from different tables or passages of the source.

Columns and labels:
Aβ = biological target: T1, Aβ (Homo sapiens, UniProt P05067); experiment: G50 gel filtration chromatography of Aβ in presence of metal ions or EDTA; conditions: metal ion 25 μM
T1 construct: purchased Sigma; Bachem (results also replicated with peptide from the Keck Laboratory, Yale); host or cells: chemical synthesis
T1 sequence (P05067 672-711): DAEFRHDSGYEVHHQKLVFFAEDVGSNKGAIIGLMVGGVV
Description: Aβ was stored in aliquots of 0.52 mg/ml in water at −20° C., then kept at 4° C. when thawed. Reagents were mixed without vortex mixing. The incubated Aβ was directly applied to a G50 SF (Pharmacia, Uppsala, Sweden) column (Bio-Rad Econo-Column, 30×0.7 cm) pre-equilibrated with metal salt solution or EDTA (50 μM) in TBS at 20° C. and eluted at 8 ml/h (Wiz peristaltic pump, Isco, Lincoln, Nebr.). Absorbance was measured at 254 and 214 nm (Type 6 optical unit, Isco). The amount of Aβ eluting at various peaks was estimated from the area under the curve. […] Because the sample eluted in a volume of approximately 15 ml, the average concentration of the peptide on the column was 0.8 μM.
To study the effects of protein blocking upon adsorption of β to the chromatography column, a Sephadex G50 SF column which had been characterized previously for Aβ behavior was eluted with 3% bovine serum albumin (BSA) in TBS (50 ml) and equilibrated with non-BSA-containing buffer, subsequent to repeating the Aβ experiments.
The elution points of molecular mass standards and relative assignments of Aβ peak elutions are indicated. Mass standards were blue dextran (2×10^6 kDa, V0=void volume), BSA (66 kDa), carbonic anhydrase (29 kDa), cytochrome c (12.4 kDa), and aprotinin (6.5 kDa). The mass of Aβ is 4.3 kDa. […] Data for experiments performed in the presence of copper were taken from 214 nm readings and corrected for comparison.

[1] = 65Zn2+ binding to immobilized peptide (dot-blot, Scatchard competition analysis); conditions: for zinc binding (in words): dot-blot or blot of tryptic digest probed with ^65Zn^2+
Description: ^65Zn^2+ Binding Studies—Dissolved peptides (1.2 nMol, unless other wise stated) were dot-blotted onto polyvinylidene difluoride membrane (0.2-μm pore size; Pierce Chemical Co.), washed twice with chelating buffer (200 μl×100 mM NaCl, 20 mM Tris-HCl, 1 mM EDTA, pH 7.4), then five times with blocking buffer (200 μl×100 mM NaCl, 20 mM Tris-HCl, 1 mM MnCl2, pH 7.4), and then incubated (60 min, 20° C.) with ^65Zn (unless otherwise stated 130,000 cpm, […] ^65ZnCl2 in 200 μl of blocking buffer±competing metal ion chloride). The dot-blot was then washed with blocking buffer (5×200 μl), the dot excised, placed in a test tube, and assayed by γ-counting (11% efficiency). The equilibration volume for stoichiometry estimates was regarded as 6×200 μl. The 214 nm UV absorbance of the unbound flow-through was assayed to determine the total amount of peptide remaining bound onto the membrane. […] To alter the pH, the ^65Zn incubation was carried out in the presence of 100 mM buffer: MOPS (pH 6.5-7.0), MES (pH 5.0-6.0), acetate (pH 3.5-4.5). The dot-blot apparatus was washed with detergent and EDTA (50 mM) then rinsed and siliconized between use.
Aliquots of Aβ were incubated (60 min) with ^65Zn^2+ in the presence of varying concentrations of unlabeled Zn^2+ (0.01-50 μM total). Values shown are means±S.D., n≧3. […] (FIG. 1b) depicts specificity of the Zn^2+ binding site for various metals. Aβ was incubated (60 min) with ^65 Zn^2+ (157 nM, 138,000 cpm) and competing unlabeled metal ions (50 μM total). […] Percent binding of total counts ^65Zn^2+/min added is corrected for the amounts (in nanomoles) of peptides adhering to the membrane. […] 157 nM ^65Zn (138,000 cpm) is used in this experiment to probe immobilized peptide (1.6 nmol).

[2] = as above; conditions: 74 nM ^65Zn^2+, corrected for peptide on membrane
[3] = Zinc-induced tinctorial amyloid formation (Congo Red, polarized light); assay type: physicochemical; conditions: Congo Red
Description: FIGS. 8a and 8b are photographs showing zinc-induced tinctorial amyloid formation. […] The particle diameter is 40μ. […] The experiment was repeated with EDTA (50 μM) substituted for Zn^2+ and yielded no visible material.
The particle diameter is 40μ. […] The experiment was repeated with EDTA (50 μM) substituted for Zn^2+ and yielded no visible material.

[4] = not given; remark: listed apart in the source
trypsin = experiment: Tryptic digestion of Aβ after incubation with Zn2+; assay type: biochemical; conditions: increasing zinc concentrations
Description: Tryptic Digestion of Aβ-Aβ1-40 (13.9 μg) was incubated with Zn^2+ ([…] in blocking buffer, 1 h, 37° C.) and then digested with trypsin (12 ng, 3 h, 37° C.). The reaction was stopped by adding SDS sample buffer containing phenylmethylsulfonyl fluoride (1 mM), boiling the samples (5 min), and applying the samples to Tris/Tricine gel electrophoresis and transfer. The blot was washed with EDTA, Coomassie-stained, incubated with ^65Zn^2+, individual bands were excised, assayed for ^65Zn^2+ binding, and N-terminal sequenced to confirm the identity of the digestion products. The effects of Zn^2+ (up to 100 μM in TBS) on the activity of trypsin, itself, were assayed by assay of Z-Arg-amido-4-methylcoumarin (Sigma) fluorescent cleavage product and determined to be negligible.
(FIG. 4a) depicts a blot of tryptic digests of Aβ (13.9 μg) after incubation with increasing concentrations of zinc (lane labels, in micromolar), stained by Coomassie Blue. […] The migration of the low molecular size markers (STD) are indicated (in kilodaltons) on the right. (FIG. 4b) depicts ^65Zn^2+ binding to Aβ tryptic digestion products. The blot in 4a was incubated with ^65Zn^2+, the visible bands excised, and the bound counts for each band determined.

In the case of [Ba+2] [Ba^2+], the “reduction in eluted peptide” value (Aβ) is reported as 60%.

With [Fe+2] [Fe^2+] the “total Zn^2+ concentration with similar or comparable effect on Aβ chromatography” value (“total Zn^2+ concentration” below) (Aβ) was about 10 µM.

In the case of [Ca+2] [Ca^2+], the “reduction in eluted peptide” value (Aβ) is reported as 60%.

With [Pb+2] [Pb^2+] the “effect on eluted Aβ species (monomer, dimer, polymer)” value (Aβ) was “most strongly promotes the elution of the monomeric peptide, abolishing high order polymers” and the “total Zn^2+ concentration” value (Aβ) was about 0.4 µM.

With NC(CO)(CO)CO [Tris] the “abolition of ^65Zn^2+ binding to Aβ” value ([1]; Tris 150 mM) was “≈ 50%” and the “abolition of ^65Zn^2+ binding to Aβ” value ([1]; Tris 500 mM) was “≈ 95%”.

For [Mg+2] [Mg^2+], the “reduction in eluted peptide” value (Aβ) was 60%.

With Aβ1-28: fragment of Aβ, residues 1-28 the “^65Zn^2+ binding compared with Aβ1-40” value [2] was 30 % of Bmax and the “zinc binding (in words)” value [1] was “clearly binds zinc”.

With [Ni+2] [Ni^2+] the “total Zn^2+ concentration” value (Aβ) was about 10 µM.

For “gln11: Aβ1-28 where residue 11 is glutamine (DAEFRHDSGYQVHHQKLVFFAEDVGSNK; Amyloid-beta protein 40; UniProt P05067 672-699, looked up, variant E11Q)”, the “zinc binding (in words)” value [1] was “does not interfere with ^65Zn^2+ binding”.

With “25-35: Aβ fragment covering a region of the carboxyl terminus, residues 25-35 (GSNKGAIIGLM; Amyloid-beta protein 40; UniProt P05067 696-706, looked up, fragment)” the “zinc binding (in words)” value [1] was “unable to bind zinc”.

With [Cu+2] [Cu^2+, copper] the “effect on eluted Aβ species (monomer, dimer, polymer)” value (Aβ) was “dramatic increase in Aβ dimerization”.

For [Ag+2] [Ag^2+], the “reduction in eluted peptide” value (Aβ) was 60%.

In the case of [Al+3] [Al^3+], the “total Zn^2+ concentration” value (Aβ) is reported as about 3 µM.

For [Co+2] [Co^2+], the “total Zn^2+ concentration” value (Aβ) was about 10 µM.

For “rat Aβ1-40: rat/mouse species of Aβ1-40; Arg→Gly, Tyr→Phe, His→Arg at positions 5, 10 and 13 (DAEFGHDSGFEVRHQKLVFFAEDVGSNKGAIIGLMVGGVV; Amyloid-beta protein 40; UniProt P08592 672-711, looked up)”, the “peptide aggregated into >0.2μ particles” value (EDTA, higher peptide concentrations) was “≈ 15%”, the “peptide aggregated into >0.2μ particles” value (EDTA, peptide 0.8 μM) was “no detectable aggregation” and the “peptide aggregated into >0.2μ particles” value (Zn^2+ 25 μM, peptide 0.8 μM) was “no aggregation”. The “peptide aggregated into >0.2μ particles” value (Zn^2+ 25 μM, peptide 4 μM) was 25%, the “zinc concentration at which aggregation was observed” value (peptide 1.6 μM) was 25 µM and the “zinc concentration up to which the peptide remains stable” value (peptide 1.6 μM) was “up to 10 μM”. For the same compound, the “Zn^2+ concentration inducing amyloid by tinctorial criteria” value [3] was at least 10 µM, the “proportion of particles >0.1μ” value ([4]; EDTA, peptide 1.6 μM) was 36% and the “proportion of particles >0.22μ” value ([4]; EDTA, peptide 1.6 μM) was 27%. For the same compound, the “proportion of particles >0.65μ” value ([4]; EDTA, peptide 1.6 μM) was 25%, the “increase of proportion of >0.1μ particles following incubation with Zn^2+” value ([4]; Zn^2+ 25 μM vs EDTA) was 20% and the “increase of proportion of >0.22μ particles following incubation with Zn^2+” value ([4]; Zn^2+ 25 μM vs EDTA) was 30%. For the same compound, the “proportion of particles >0.65μ” value ([4]; Zn^2+ 25 μM, peptide 1.6 μM) was “increased only slightly”.

For “Aβ6-40: 3.6 kDa tryptic digestion product of Aβ1-40”, the “effect of zinc on rate of tryptic digestion of the peptide” value (trypsin) was “is inhibited by the presence of zinc” and the “zinc binding (in words)” value [1] was “binds zinc”.

With “Aβ17-40: 2.1 kDa tryptic digestion product of Aβ1-40, equivalent to post-secretase carboxyl-terminal product (LVFFAEDVGSNKGAIIGLMVGGVV; Amyloid-beta protein 40; UniProt P05067 688-711, looked up, fragment)” the “effect of zinc on rate of tryptic digestion of the peptide” value (trypsin) was “is not inhibited by increasing zinc concentrations” and the “zinc binding (in words)” value [1] was “does not bind zinc”.
